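GI50 is the concentration that inhibits growth by half. TGI marks complete inhibition of growth.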
Assays:
Assay in all cases: NCI tumour cell line growth inhibition, 384-well format
[1] = tested on: NCI-H23 lung
[2] = tested on: SF-539 CNS
[3] = tested on: HCT-15 colon
[4] = tested on: A549 NSCLC
[5] = tested on: OVCAR-3 ovarian
[6] = tested on: IGROV1 ovarian
[7] = tested on: SK-MEL-5 melanoma
[8] = tested on: TK-10 renal
[9] = tested on: SNB-75 CNS
[10] = tested on: HOP-92 NSCLC
[11] = tested on: HCT-116 colon
[12] = tested on: NCI/ADR-RES ovarian
[13] = tested on: RPMI-8226 leukemia
[14] = tested on: KM12 colon
[15] = tested on: OVCAR-5 ovarian
[16] = tested on: SW-620 colon
[17] = tested on: SN12C renal
[18] = tested on: PC-3 prostate
[19] = tested on: SNB-19 CNS
[20] = tested on: SF-295 CNS
[21] = tested on: BT-549 breast
[22] = tested on: NCI-H322M lung
[23] = tested on: T-47D breast
[24] = tested on: SR leukemia
[25] = tested on: SK-MEL-2 melanoma
[26] = tested on: MCF7 breast
[27] = tested on: HL-60(TB) leukemia
[28] = tested on: RXF 393 renal
[29] = tested on: K-562 leukemia
[30] = tested on: MALME-3M melanoma

Compound `C[C@H]1CN(C2COC2)CCN1c1ccc(Nc2cc(-c3ccnc(N4CCn5c(cc6c5CC(C)(C)C6)C4=O)c3CO)cn(C)c2=O)nc1` has a GI50 [1] of 33.5 µM, a TGI [1] greater than 78.7 µM and a GI50 [2] of 25.5 µM. The TGI [2] was greater than 53.4 µM, the GI50 [3] was 28.3 µM and the TGI [3] was greater than 55.3 µM. The GI50 [4] was 18.5 µM, the TGI [4] was greater than 54.3 µM and the GI50 [5] was 10.7 µM. The TGI [5] was 24.7 µM, the GI50 [6] was 15.5 µM and the TGI [6] was 33.9 µM. The GI50 [7] was 27.8 µM, the TGI [7] was greater than 48.2 µM and the GI50 [8] was 17 µM. The TGI [8] was 32.8 µM, the GI50 [9] was 30.5 µM and the TGI [9] was 81.6 µM. For the same compound, the GI50 [10] was 1.15 µM, the TGI [10] was 6.86 µM and the GI50 [11] was 20.6 µM. For the same compound, the TGI [11] was greater than 52.4 µM, the GI50 [12] was 20.8 µM and the TGI [12] was 55.9 µM. For the same compound, the GI50 [13] was 0.86 µM, the TGI [13] was 2.55 µM and the GI50 [14] was 26.2 µM. The TGI [14] was greater than 58.9 µM, the GI50 [15] was 24.1 µM and the TGI [15] was greater than 67.1 µM. It also gave a GI50 [16] of 17.5 µM, a TGI [16] of 38.1 µM and a GI50 [17] of 20.2 µM. For the same compound, the TGI [17] was 44.5 µM, the GI50 [18] was 28.1 µM and the TGI [18] was 90.1 µM. For the same compound, the GI50 [19] was 29.8 µM, the TGI [19] was greater than 85.4 µM and the GI50 [20] was 35 µM. It also gave a TGI [20] greater than 60.1 µM, a GI50 [21] of 18.9 µM and a TGI [21] of 40.9 µM. It also gave a GI50 [22] of 28.6 µM, a TGI [22] greater than 72.8 µM and a GI50 [23] of 20.3 µM. It also gave a TGI [23] greater than 59.5 µM, a GI50 [24] of 5.31 µM and a TGI [24] of 18.4 µM. For the same compound, the GI50 [25] was 4.87 µM, the TGI [25] was 24.5 µM and the GI50 [26] was 14.1 µM. The TGI [26] was greater than 44 µM, the GI50 [27] was 12.9 µM and the TGI [27] was 25.9 µM. For the same compound, the GI50 [28] was 3.89 µM, the TGI [28] was 26.8 µM and the GI50 [29] was 20.6 µM. For the same compound, the TGI [29] was greater than 53.8 µM and the GI50 [30] was 34.8 µM.

— PubChem BioAssay (NCI)
